The text below walks through data of PMC11648681, “Development of machine learning models for the prediction of the skin sensitization potential of cosmetic compounds” (PeerJ, 2024).

Data set [1] is described as follows: CCK-8 cell viability of THP-1 cells after 48 h compound treatment in HaCaT/THP-1 co-culture. The data set is classed as cell-based, human. The following applies: human. As for the experimental part: (§1) The co-culture system was set up according to the following described method. […] THP-1 cells were collected, centrifuged, and re-suspended in fresh RPMI-1640 medium supplemented with 10% FBS at 2 × 10^6 cells/mL. Then cells are distributed into HaCaT-seeded 96 wells plate with 80 μL (1.6 × 10^5 cells/well).
(§2) The compounds listed in Table 1 were dissolved in DMSO to create stock solutions with a concentration of 500 mg/mL. Eleven concentrations were subsequently prepared using two-fold serial dilutions. These stock solutions were then further diluted 250-fold in RPMI-1640 + 10% FBS medium. Finally, 80 μL of the prepared solutions were added 1:1 to the treated 96-well plates and incubated for 48 h at 37 °C and 5% CO2.
(§3) After 48 h of treatment, the treated cells were collected 100 μL cells per well. The supernatant medium was added 10 μL of CCK-8 (Life-iLab, Shanghai, China) solution to each well and incubated the plate in the incubator for 2–4 h. THP-1 cell viability was determined using standard calculation methods.
(§4) The cytotoxicity of 15 test compounds listed in Table 1 was assessed using THP-1 cells across a concentration range of 1,000 to 3.9 μg/mL. Cell viability was assessed after 48 h of treatment using the CCK-8 assay.

Data set [2] has as its system THP-1 cells. Described as above. The class given is cell-based, human. Particulars: for Cell viability / final concentration used (highest concentration that maintained at least 80% cell viability): 48 h; for IC50 (cytotoxicity) / final concentration used (highest concentration that maintained at least 80% cell viability): THP-1 cells; for IC50 (cytotoxicity): 48 h treatment, CCK-8, range 1,000 to 3.9 μg/mL; for final concentration used (highest concentration that maintained at least 80% cell viability): CCK-8, single (not double) concentration. As for the experimental part: as §1, §2, §3, §4

Setting [3] is: THP-1 cells in co-culture with HaCaT cells, 48 h, THP-1, individual replicate values.
The mark [4] stands for this setting: 0.976563 μg/mL, THP-1, individual replicate values.
Where [5] appears, read: 1.95312 μg/mL, THP-1, individual replicate values.
Where [6] appears, read: 3.90625 μg/mL, THP-1, individual replicate values.
Setting [7] is: 7.8125 μg/mL, THP-1, individual replicate values.
[8] abbreviates: 15.625 μg/mL, THP-1, individual replicate values.
Setting [9] is: 62.5 μg/mL, THP-1, individual replicate values.
The mark [10] stands for this setting: 125 μg/mL, THP-1, individual replicate values.
Where [11] appears, read: 250 μg/mL, THP-1, individual replicate values.
Setting [12] is: 500 μg/mL, THP-1, individual replicate values.
Where [13] appears, read: 1000 μg/mL, THP-1, individual replicate values.
[14] abbreviates: 48 h, THP-1, individual replicate values.
Setting [15] is: 31.25 μg/mL, THP-1, individual replicate values.

Each structure is given as a SMILES string. Where “and” joins values, the source holds several entries; their conditions need not be identical. Equal values may be shown once. Read-outs that look alike come from different tables or passages of the source.

As for `Sc1nc2ccccc2s1` [2-mercaptobenzothiazole], the viability (in general, a read-out of living cells in per cent, often relative to untreated cells) at 48 h, 31.25 μg/mL in data set [1] (Cell viability) is 63.3%. Further, the viability at 48 h, 0.976563 μg/mL in data set [1] (setting [3]) was found to be 80.2%. For the same compound, in data set [1] (setting [3]), the viability at 48 h, 1.95312 μg/mL was 76.6%. For the same compound, in data set [1] (setting [3]), the viability at 48 h, 3.90625 μg/mL amounted to 77.2%. The viability at 48 h, 7.8125 μg/mL in data set [1] (setting [3]) worked out at 65.9%. Besides, the viability at 48 h, 15.625 μg/mL in data set [1] (setting [3]) was determined as 63.3%. The viability at 48 h, 62.5 μg/mL in data set [1] (setting [3]) was 61.4%. The viability at 48 h, 125 μg/mL in data set [1] (setting [3]) was 34.2%. For the same compound, in data set [1] (setting [3]), the viability at 48 h, 250 μg/mL amounted to 24.8%. The viability at 48 h, 500 μg/mL in data set [1] (setting [3]) was 20.8%. Also, the viability at 48 h, 1000 μg/mL in data set [1] (setting [3]) amounted to 12.9%. Also, the Cell viability is given as 93.5695% in data set [2] (setting [4]); 85.722% in data set [2] (setting [5]); 80.7937% in data set [2] (setting [6]); 76.7668% in data set [2] (setting [7]); 73.0224% in data set [2] (setting [8]); 73.444% in data set [2] (setting [9]). In addition, the Cell viability in data set [2] (setting [10]) stood at 34.9417%; in data set [2] (setting [11]) it was 27.3318%; in data set [2] (setting [12]), 20.0359%; in data set [2] (setting [13]), 12.1659%; in data set [2] (human, 31.25 μg/mL), 70.7399%.
`C[S+](C)[O-]` [DMSO, Dimethyl sulfoxide]: the Cell viability in data set [2] (setting [4]) is 104.048% and 100.267%; in data set [2] (setting [5]), 96% and 94.5143%; in data set [2] (setting [6]), 96.1619% and 89.1238%; in data set [2] (setting [12]), 86.8476% and 87.3143%; in data set [2] (setting [13]), 91.9905% and 89.9048%. The “IC50 (cytotoxicity)” value in data set [2] was “greater than 1,000 μg/mL”.
As to `O=[N+]([O-])c1ccc(Cl)c([N+](=O)[O-])c1` [DNCB, 2,4-dinitrochlorobenzene], in data set [1] (setting [14]), the viability at 48 h, 0.976563 μg/mL was found to be 102%. In addition, in data set [1] (setting [14]), the viability at 48 h, 1.95312 μg/mL was 88.2%. The viability at 48 h, 3.90625 μg/mL in data set [1] (setting [14]) stood at 75.9%. Also, the viability at 48 h, 7.8125 μg/mL in data set [1] (setting [14]) is 6.82%. Further, in data set [1] (setting [14]), the viability at 48 h, 15.625 μg/mL stood at 6.91%. In addition, the viability at 48 h, 31.25 μg/mL in data set [1] (31.25 μg/mL, 48 h, THP-1, individual replicate values, read-out: Cell viability) was found to be 7.1%. Also, the viability at 48 h, 62.5 μg/mL in data set [1] (setting [14]) came to 7.52%. The viability at 48 h, 125 μg/mL in data set [1] (setting [14]) worked out at 8.76%. Moreover, the viability at 48 h, 250 μg/mL in data set [1] (setting [14]) was 11%. Further, the viability at 48 h, 500 μg/mL in data set [1] (setting [14]) was found to be 13.4%. Besides, the viability at 48 h, 1000 μg/mL in data set [1] (setting [14]) was 19.9%. Also, the Cell viability in data set [2] (setting [4]) stood at 95.0987%; in data set [2] (setting [5]), 97.1973%; in data set [2] (setting [6]), 71.1839%; in data set [2] (setting [7]), 7.332%; in data set [2] (setting [8]), 7.211%; in data set [2] (setting [15]) it was 7.274%. Moreover, the Cell viability in data set [2] (setting [9]) is given as 9.193%; in data set [2] (setting [10]) it was 8.767%; in data set [2] (setting [11]) it was 9.112%; in data set [2] (setting [12]) it was 10.9865%; in data set [2] (setting [13]), 11.5516%.
Take `CC(C)O` [IPA, Isopropanol]: the Cell viability was 106.609% and 97.981% in data set [2] (setting [4]); 97.8095% and 92.5429% in data set [2] (setting [5]); 90.3238% and 89.219% in data set [2] (setting [6]); 92.0495% and 89.6476% in data set [2] (setting [7]); 92.1791% and 88.8381% in data set [2] (setting [8]); 92.0943% and 92.7371% in data set [2] (setting [15]). The Cell viability in data set [2] (setting [9]) was 91.3838% and 93%; in data set [2] (setting [10]), 92.3943% and 110.771%; in data set [2] (setting [11]), 91.0095% and 92.9524%; in data set [2] (setting [12]), 91.6191% and 88.9333%; in data set [2] (setting [13]), 96.9905% and 96.3619%. For the same compound, the “IC50 (cytotoxicity)” value in data set [2] was “greater than 1,000 μg/mL”.
For the compound `CCCCCCCCCCCCOS(=O)(=O)[O-].[Na+]` [SDS, Sodium dodecyl sulfate], the Cell viability is 99.2381% and 110.076% in data set [2] (setting [4]); 92.6381% and 90.6381% in data set [2] (setting [5]); 73.0476% and 93.5333% in data set [2] (setting [6]); 90.7238% and 93.3905% in data set [2] (setting [7]); 95.4381% and 98.4286% in data set [2] (setting [8]); 85.9333% and 91.0762% in data set [2] (setting [15]). Moreover, the Cell viability in data set [2] (setting [9]) is 37.0381% and 32.0952%; in data set [2] (setting [10]), 15.5905% and 18.1809%; in data set [2] (setting [11]) it was 15.9333% and 15.6381%; in data set [2] (setting [12]), 15.1524% and 16.781%; in data set [2] (setting [13]), 14.1809% and 14.2952%. For the same compound, the “final concentration used (highest concentration that maintained at least 80% cell viability)” value in data set [2] is 31.25 µg/mL.
On to `CC(C)(C)c1cc(O)ccc1O` [THBQ, Tert-butylhydroquinone], for which the viability at 48 h, 31.25 μg/mL in data set [1] (Cell viability) is 103%. In data set [1] (setting [3]), the viability at 48 h, 0.976563 μg/mL was found to be 95.9%. For the same compound, the viability at 48 h, 1.95312 μg/mL in data set [1] (setting [3]) worked out at 94.8%. In data set [1] (setting [3]), the viability at 48 h, 3.90625 μg/mL came out at 97.4%. In addition, the viability at 48 h, 7.8125 μg/mL in data set [1] (setting [3]) was 117%. Also, the viability at 48 h, 15.625 μg/mL in data set [1] (setting [3]) is 104%. In addition, the viability at 48 h, 62.5 μg/mL in data set [1] (setting [3]) was 47.1%. In addition, the viability at 48 h, 125 μg/mL in data set [1] (setting [3]) came to 29.9%. For the same compound, the viability at 48 h, 250 μg/mL in data set [1] (setting [3]) stood at 26.6%. Moreover, the viability at 48 h, 500 μg/mL in data set [1] (setting [3]) was found to be 18.8%. In addition, the viability at 48 h, 1000 μg/mL in data set [1] (setting [3]) turned out to be 15.2%. The Cell viability in data set [2] (setting [4]) worked out at 94.8298%; in data set [2] (setting [5]), 95.9362%; in data set [2] (setting [6]) it was 101.759%; in data set [2] (setting [7]) it was 103.546%; in data set [2] (setting [8]) it was 101.22%; in data set [2] (setting [9]), 47.234%. Also, the Cell viability in data set [2] (setting [10]) is reported as 34.2837%; in data set [2] (setting [11]), 20.1277%; in data set [2] (setting [12]), 18.8014%; in data set [2] (setting [13]), 15.3191%; in data set [2] (human, 31.25 μg/mL), 104.716%. For the same compound, in data set [2], the “final concentration used (highest concentration that maintained at least 80% cell viability)” value was 31.25 µg/mL.
As for `N#CCCC(Br)(C#N)CBr` (centres unmarked) [bromoml, 1,2-dibromo-2,4-dicyanobutane], the viability at 48 h, 31.25 μg/mL in data set [1] (Cell viability) is 12%. Also, in data set [1] (setting [3]), the viability at 48 h, 0.976563 μg/mL came out at 97%; the viability at 48 h, 1.95312 μg/mL was 97.1%; the viability at 48 h, 3.90625 μg/mL came to 100%; the viability at 48 h, 7.8125 μg/mL was found to be 53.3%. Besides, in data set [1] (setting [3]), the viability at 48 h, 15.625 μg/mL amounted to 13.3%; the viability at 48 h, 62.5 μg/mL worked out at 12.2%; the viability at 48 h, 125 μg/mL is 12.2%; the viability at 48 h, 250 μg/mL is 11.9%. For the same compound, in data set [1] (setting [3]), the viability at 48 h, 500 μg/mL is 12.9% and the viability at 48 h, 1000 μg/mL amounted to 12.4%. Besides, the Cell viability in data set [2] (setting [4]) turned out to be 102.88%. Moreover, the Cell viability in data set [2] (setting [5]) turned out to be 103.993%. Moreover, in data set [2] (setting [6]), the Cell viability was found to be 108.767%. The Cell viability in data set [2] (setting [7]) amounted to 57.1729%. In data set [2] (setting [8]), the Cell viability was 14.391%. Besides, the Cell viability in data set [2] (setting [9]) came to 11.8195%. For the same compound, the Cell viability in data set [2] (setting [10]) is given as 12.0752%. The Cell viability in data set [2] (setting [12]) is on record as 12.3985%. Besides, the Cell viability in data set [2] (setting [13]) is listed as 12.3609%. For the same compound, in data set [2], the “final concentration used (highest concentration that maintained at least 80% cell viability)” value amounted to 3.9 µg/mL. Also, in data set [2] (human, 31.25 μg/mL), the Cell viability turned out to be 11.782%.
